In patent US20120122727A1, “IN VITRO METHOD FOR PREDICTING WHETHER A COMPOUND IS GENOTOXIC IN VIVO” (priority 2009, published 2012):

How the values were obtained:
[1] = system: primary mouse hepatocytes; test: Gene expression (Affymetrix Mouse Genome 430 2.0) in primary mouse hepatocytes, true vs false GTX, 24 h and 48 h
[2] = in vivo; cited from earlier work
[3] = system: primary mouse hepatocytes

Oc1cccc2cccnc12 [8Q, 8-Hydroxyquinoline]
Gene expression NM_013642 average [1]: 0.2659 | Gene expression NM_013738 average [1]: −0.305 | Gene expression NM_013929 average [1]: 0.033 | Gene expression NM_018881 average [1]: −0.1679 | Gene expression NM_019738 average [1]: −0.9543 | Gene expression NM_030697 average [1]: −0.0261 | Gene expression NM_053122 average [1]: −0.142 | Gene expression NM_134147 average [1]: −0.1757 | Gene expression NM_134188 average [1]: −0.07067 | Gene expression X62701 average [1]: 0.154 | Gene expression data AF000969 (Cadps2) [1]: −0.3717 | Gene expression data AF022072 (Grb10) [1]: −0.4275 | Gene expression data AF065917 (Lif) [1]: −0.2101 | Gene expression data AF297615 (Ggta1) [1]: −0.0684 | Gene expression data AI594683 (Dmn) [1]: −0.09783 | Gene expression data AI596632 (Ptprg /// LOC632664) [1]: −0.227 | Gene expression data AI987929 (Ndrg1) [1]: 0.4414 | Gene expression data AK004419 (Fbxl17) [1]: 0.01113 | Gene expression data AK005731 (1700007K13Rik) [1]: 0.1143 | Gene expression data AK007766 (1810044A24Rik) [1]: −0.0226 | Gene expression data AK007854 (1810053B23Rik) [1]: −0.076 | Gene expression data AK009736 (Gpr137b /// LOC664862 /// LOC673335) [1]: 0.5337 | Gene expression data AK010447 (Smyd3) [1]: 0.07697 | Gene expression data AK014608 (4632434l11Rik) [1]: −0.1225 | Gene expression data AK019979 (2610528E23Rik) [1]: 0.08447 | Gene expression data AV095209 (Mthfd1l) [1]: 0.1564 | Gene expression data AV141095 (1110033M05Rik) [1]: −0.07047 | Gene expression data AV173571 (1700106N22Rik) [1]: 0.04197 | Gene expression data AV219418 (Ldhb) [1]: 0.0363 | Gene expression data AV223474 (Zdhhc14) [1]: −0.06957 | Gene expression data AV298304 (Homez) [1]: −0.03607 | Gene expression data AV327248 (Zfp365 /// LOC674611) [1]: −0.082 | Gene expression data AV377066 (9130221J18Rik) [1]: −0.3212 | Gene expression data AW240761 (Tbc1d5) [1]: −0.2006 | Gene expression data AW543460 (Pard3) [1]: −0.0366 | Gene expression data AW543723 [1]: −0.0994 | Gene expression data AW986246 (Maoa) [1]: 0.3198 | Gene expression data BB027848 (4732466D17Rik) [1]: −0.2807 | Gene expression data BB043558 (9230114K14Rik) [1]: −0.3734 | Gene expression data BB275142 (AW456874) [1]: −0.02507 | Gene expression data BB308836 (Ppm1l) [1]: 0.2558 | Gene expression data BB318221 (Zdhhc14) [1]: 0.1138 | Gene expression data BB463610 (4632434l11Rik) [1]: −0.2188 | Gene expression data BB526605 (Mipol1) [1]: −0.01453 | Gene expression data BB770528 (Rai2) [1]: 0.1386 | Gene expression data BB821363 (Scfd2) [1]: 0.1765 | Gene expression data BC004827 (Psat1) [1]: −0.1011 | Gene expression data BC008626 (Icam1) [1]: −0.4422 | Gene expression data BC010462 (BC010462) [1]: 0.05663 | Gene expression data BC012247 (Dcxr) [1]: −0.0122 | Gene expression data BC012260 (Psmf1) [1]: 0.2545 | Gene expression data BC015270 (Hist2h3c2) [1]: −0.03353 | Gene expression data BC016073 (Cdkal1) [1]: −0.05183 | Gene expression data BC016265 (Ube2e2) [1]: −0.2547 | Gene expression data BC019882 (Acaa1b) [1]: 0.0605 | Gene expression data BC025501 (Aaas) [1]: 0.1979 | Gene expression data BC025837 (Sbk1) [1]: −0.04227 | Gene expression data BC025915 (Cova1) [1]: −0.02643 | Gene expression data BC026422 (Tgm1) [1]: 0.2873 | Gene expression data BF719766 (Thyn1) [1]: −0.1935 | Gene expression data BG065754 (Ccng1) [1]: −0.2279 | Gene expression data BG066903 (Kif16b) [1]: −0.1277 | Gene expression data BG069873 (Gnb1l) [1]: −0.04763 | Gene expression data BG070887 (Gtdc1) [1]: −0.04273 | Gene expression data BG076151 (Ppm1d) [1]: 0.07243 | Gene expression data BG261907 (Large) [1]: −0.1486 | Gene expression data BI651416 (Cdc42bpg) [1]: 0.1364 | Gene expression data BI660702 (Ell3) [1]: 0.05113 | Gene expression data BM198879 (Ercc5) [1]: −0.006767 | Gene expression data BM230508 (A030007D23Rik) [1]: 0.03497 | Gene expression data NM_007987 (Fas) [1]: −0.05523 | Gene expression data NM_008522 (Ltf) [1]: −0.05963 | Gene expression data NM_008576 (Abcc1) [1]: 0.106 | Gene expression data NM_011176 (St14) [1]: 0.05783 | Gene expression data NM_011316 (Saa4) [1]: 0.0831 | Gene expression data NM_012006 (Acot1) [1]: −0.2532 | Gene expression data NM_013866 (Zfp385) [1]: 0.05893 | Gene expression data NM_018770 (Igsf4a) [1]: 0.1391 | Gene expression data NM_021451 (Pmaip1) [1]: −0.5295 | Gene expression data NM_025770 (Atg10) [1]: −0.1372 | Gene expression data NM_028803 (Gbe1) [1]: −0.04593 | Gene expression data NM_030697 (Ankrd47) [1]: 0.2204 | Gene expression data NM_053168 (Trim11) [1]: −0.0493 | Gene expression data NM_134188 (Acot2) [1]: −0.2881 | Gene expression data Y15910 (Diap2) [1]: −0.2692 | GTX in vivo [2]: − | Gene expression data AF204959 (Cyp3a25 /// LOC622249) [3]: −0.4178
